Reference: patent US7528226B2, “TGFβ1-inhibitor peptides” (Rojecto de Biomedicina Cima S.L., priority 1998, dated 2009)
No end group written: not given here.

Key:
[1] = system: type I, II and III cell receptors of TGFβ1; experiment: Affinity labelling: inhibition of binding of 125I-TGFβ1 to its cell receptors on MV-1-Lu cells; design: species or system human
Experimental: The MV-1-Lu cells were removed from the culture flasks incubating them at 37° C. for 10 minutes, with 10 ml of solution 1 (128 mM NaCl, 5 mM KCl, 25 mM 4-(2-hydroxyethyl)-1-piperazine ethanesulphonate at pH 7.5, 5 mM glucose and 1 mM EDTA). The cells thus removed were resuspended in solution 2 (128 Mm NaCl, 5 mM KCl, 50 mM 4-(2-hydroxyethyl)-1-piperazine ethanesulphonate at pH 7.5, 1.2 mM CaCl2, 1.2 mM MgSO4 and 5 mg/ml BSA) and were collected by centrifugation at 1000×g for 5 minutes. After centrifugation the cells were resuspended in solution 2 at a concentration of 10^6 cells/ml.
From this cell suspension, 0.5 ml aliquots were made in 24-well plates (Greiner GmbH, Frickenhausen, Germany), the peptides were added, in 50 μl of a 0.8 mg/ml solution, then this was incubated for 2 hours at 4° C. with stirring. Next, ^125I-TGFβ1 (2 μCi) was added to a final concentration of 277.2 pM (^125I-TGFβ1 human recombinant 800-2200 Ci/mmol, Amersham Life Science, Buckinghamshire, UK) and this was incubated for a further two hours at 4° C. with stirring.
After incubation, the cells were transferred to a centrifuge tube and were centrifuged cold at 12,000×g for 1 minute. […]

[2] = system: experimental cirrhosis with CCl4; experiment: Model of experimental cirrhosis induced with CCl4 in Wistar rats (collagen / fibrosis); format: in vivo, rat
Experimental: Male white rats (albino Wistar strain) from simultaneous litters (5 weeks±1.5 weeks) were used, in order to obtain a group that was homogeneous in age and initial weight. Throughout the experiments, the animals were kept in conditions of constant temperature (22° C.) with a 12-hour cycle of light and darkness. They had free access to water and food.
Hepatic cirrhosis (HC) was induced by inhalation of carbon tetrachloride for 11 weeks, twice per week (López Novoa J M et al. (1976) Patologia IX:223-240; Camps J. et al. (1987) Gastroenterology 93:498-505). Exposure to CCl4 was effected by bubbling compressed air, at a flow rate of 3 liters/min, through a gas wash-bottle. […] CCl4 was not administered during the fifth week, starting again at the sixth week with an exposure of 5 minutes. This exposure time was maintained until week 11. 400 mg/l of phenobarbital (Luminal®, Bayer, Leverkusen, Germany) was added to the drinking water, from one week before starting exposure to CCl4 and until the end of the experimental period. Before starting the treatment, one week was left, in which they were not administered CCl4. During treatment they were administered a weekly dose of CCl4, as recorded (FIG. 2).
The animals were divided into 4 groups before beginning the process of induction of hepatic cirrhosis. • Healthy controls (Co): Animals that were not subjected to the fibrosis process. • Treated healthy controls (Co+P144): Animals that were not subjected to the fibrosis process and that were administered the peptide P144 during the last 3 weeks (coinciding in time with the treatment of the group of rats Tto2). • Cirrhotic controls 1 (Ci1): Animals subjected to the process of induction of cirrhosis by inhalation of CCl4 twice per week. These animals were separated into 2 groups on reaching the fifth week: • Cirrhotic controls 1 (Ci1): Animals that continued to be subjected to the process of induction of fibrosis up to week 11, without being administered the peptide P144. They were administered saline serum on alternate days, throughout the induction process (weeks 5 to 11). • Treated cirrhotics 1 (Tto1): Animals that were administered the peptide P144 derived from the sequence of the type III receptor, on alternate days, during the process of induction of fibrosis, from week 5 to week 11. • Cirrhotic controls 2 (Ci2): Animals that continued to be subjected to the process of induction of fibrosis without receiving the peptide P144 or saline serum. This group was subdivided into another two on reaching week 11. • Cirrhotic controls 2 (Ci2): Cirrhotic animals that were not subjected to any type of treatment, kept as controls. […]

TSLDASIIWAMMQN [P144, ThrSerLeuAspAlaSerIleIleTrpAlaMetMetGlnAsn]
inhibition of the binding of 125I-TGFβ1 to the cell receptors ([1]; preincubation with peptide at 10^6 times the molar concentration of 125I-TGFβ1): inhibition of the binding | concentration at which the peptide lost its activity ([1]; titration of the peptide, affinity labelling): 2×10^5 times the molar concentration of ^125I-TGFβ1 | ratio of collagen to total protein, treated (Tto1) vs cirrhotic controls (Ci1) ([2]; protocol 1: 70 μg/animal on alternate days during cirrhosis induction, Fast Green/Direct Red, spectrophotometer): significant differences are observed (P<0.05) | area of fibrosis, treated (Tto1) vs cirrhotic controls (Ci1) ([2]; protocol 1: 70 μg/animal on alternate days during cirrhosis induction, image analysis, Sirius Red): also significant (P<0.001) | ratio of collagen to total protein, treated (Tto2) vs cirrhotic controls (Ci2) ([2]; protocol 2: 70 μg/animal on alternate days for 3 weeks once cirrhosis was established): not significant | area of fibrosis, treated (Tto2) vs cirrhotic controls (Ci2) ([2]; protocol 2: 70 μg/animal on alternate days for 3 weeks once cirrhosis was established, image analysis): not significant
